Source: ChEMBL document CHEMBL1201862, “PubChem BioAssay data set” (2004)
Structures can show the parent of a compound that is named as a salt.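 The compound was tested at five concentrations on cells cultured in 96-well plates, with a 48-hour exposure period. GI50 is the concentration that inhibits growth by half.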 Activity calls are given as the source filed them. Cut-off read from the data, not from the text of the source: active = GI50 up to about 1.1 µM and inactive = higher.

How the values were obtained:
Experiment in all cases: growth of human tumour cells (NCI), 48 h
[1] = tested on: SK-OV-3
[2] = tested on: OVCAR-8
[3] = tested on: SK-MEL-2
[4] = tested on: UACC-257
[5] = tested on: Hs-578T
[6] = tested on: U-251
[7] = tested on: OVCAR-3
[8] = tested on: SNB-19
[9] = tested on: CAKI-1
[10] = tested on: SW-620
[11] = tested on: HCT-15
[12] = tested on: HCC 2998
[13] = tested on: KM12
[14] = tested on: HT-29
[15] = tested on: HL-60
[16] = tested on: IGROV-1
[17] = tested on: NCI-H460
[18] = tested on: MDA-N
[19] = tested on: TK-10
[20] = tested on: SF-295
[21] = tested on: SK-MEL-5
[22] = tested on: SR
[23] = tested on: OVCAR-4
[24] = tested on: HOP-62
[25] = tested on: PC-3
[26] = tested on: Malme-3M
[27] = tested on: COLO 205
[28] = tested on: LOX IMVI
[29] = tested on: A549
[30] = tested on: A498
[31] = tested on: SF-268
[32] = tested on: SF-539
[33] = tested on: 786-0
[34] = tested on: SNB-75
[35] = tested on: OVCAR-5
[36] = tested on: DU-145
[37] = tested on: NCI/ADR-RES
[38] = tested on: SN12C
[39] = tested on: MDA-MB-231
[40] = tested on: EKVX
[41] = tested on: MCF7
[42] = tested on: ACHN
[43] = tested on: NCI-H23
[44] = tested on: CCRF-CEM
[45] = tested on: HCT-116
[46] = tested on: UO-31
[47] = tested on: MOLT-4
[48] = tested on: K562
[49] = tested on: T47D
[50] = tested on: RPMI-8226
[51] = tested on: SK-MEL-28
[52] = tested on: M14
[53] = tested on: UACC-62
[54] = tested on: RXF 393
[55] = tested on: NCI-H522
[56] = tested on: MDA-MB-435

CC1CN=C(N(C(=O)Nc2ccccc2)c2ccccc2)S1 (centres undefined)
GI50 [1]: > 100 µM (inactive) | GI50 [2]: 40.3 µM (inactive) | GI50 [3]: 20.8 µM (inactive) | GI50 [4]: 17.1 µM (inactive) | GI50 [5]: 42.5 µM (inactive) | GI50 [6]: 37.7 µM (inactive) | GI50 [7]: 24.9 µM (inactive) | GI50 [8]: 88.1 µM (inactive) | GI50 [9]: 27 µM (inactive) | GI50 [10]: 41.5 µM (inactive) | GI50 [11]: 37.2 µM | GI50 [12]: 35.9 µM (inactive) | GI50 [13]: 32.7 µM (inactive) | GI50 [14]: 17.9 µM (inactive) | GI50 [15]: 20 µM (inactive) | GI50 [16]: 42.6 µM (inactive) | GI50 [17]: 30.1 µM (inactive) | GI50 [18]: 24.1 µM (inactive) | GI50 [19]: 20.6 µM (inactive) | GI50 [20]: 37.9 µM (inactive) | GI50 [21]: 16.7 µM (inactive) | GI50 [22]: 27.2 µM (inactive) | GI50 [23]: 19.5 µM (inactive) | GI50 [24]: 39.9 µM (inactive) | GI50 [25]: 36.6 µM (inactive) | GI50 [26]: 23 µM (inactive) | GI50 [27]: 59.3 µM (inactive) | GI50 [28]: 18.8 µM (inactive) | GI50 [29]: 33.4 µM (inactive) | GI50 [30]: 10.6 µM (inactive) | GI50 [31]: 20.6 µM (inactive) | GI50 [32]: > 10 µM (inactive) | GI50 [33]: 39.5 µM (inactive) | GI50 [34]: 13.3 µM (inactive) | GI50 [35]: 90.4 µM (inactive) | GI50 [36]: 53.2 µM (inactive) | GI50 [37]: 22 µM (inactive) | GI50 [38]: 25.2 µM (inactive) | GI50 [39]: 27.4 µM (inactive) | GI50 [40]: 29 µM (inactive) | GI50 [41]: 8.99 µM (inactive) | GI50 [42]: 37.2 µM (inactive) | GI50 [43]: 35.4 µM (inactive) | GI50 [44]: 23.4 µM (inactive) | GI50 [45]: 39.7 µM (inactive) | GI50 [46]: 38.4 µM (inactive) | GI50 [47]: 19 µM (inactive) | GI50 [48]: 43.9 µM (inactive) | GI50 [49]: 24.9 µM (inactive) | GI50 [50]: 26 µM (inactive) | GI50 [51]: 13.9 µM (inactive)

COc1cc2nc(N3CCN(C(=O)c4ccco4)CC3)nc(N)c2cc1OC [PRAZOSIN HYDROCHLORIDE]
GI50 [43]: 13.7 µM (inactive)

COc1ccc(C(=O)/C=C/c2ccc(OCC(=O)N3CCN(c4ccccc4)CC3)cc2)cc1OC
GI50 [1]: 6.07 µM (inactive) | GI50 [2]: 4.29 µM (inactive) | GI50 [52]: 6.28 µM (inactive) | GI50 [4]: 3.37 µM (inactive) | GI50 [9]: 5.28 µM (inactive) | GI50 [10]: 5.73 µM (inactive) | GI50 [11]: 4.84 µM | GI50 [12]: 5.3 µM (inactive) | GI50 [13]: 4.15 µM (inactive) | GI50 [14]: 4.07 µM (inactive) | GI50 [53]: 5.58 µM (inactive) | GI50 [15]: 2.88 µM (inactive) | GI50 [16]: 9.38 µM (inactive) | GI50 [18]: 3.21 µM (inactive) | GI50 [19]: > 10 µM (inactive) | GI50 [20]: 6.3 µM (inactive) | GI50 [21]: 4.52 µM (inactive) | GI50 [22]: 2.18 µM (inactive) | GI50 [24]: 4.46 µM (inactive) | GI50 [25]: 3.56 µM (inactive) | GI50 [26]: 5.96 µM (inactive) | GI50 [27]: > 10 µM (inactive) | GI50 [29]: 5.36 µM (inactive) | GI50 [31]: 3.39 µM (inactive) | GI50 [33]: 5.31 µM (inactive) | GI50 [34]: 3.72 µM (inactive) | GI50 [36]: 1.42 µM (inactive) | GI50 [38]: 4.82 µM (inactive) | GI50 [39]: 4.69 µM (inactive) | GI50 [40]: 7.01 µM (inactive) | GI50 [41]: 2.9 µM (inactive) | GI50 [43]: 2.05 µM (inactive) | GI50 [44]: 2.52 µM (inactive) | GI50 [47]: 2.34 µM (inactive) | GI50 [48]: 3.14 µM (inactive) | GI50 [49]: 5.89 µM (inactive) | GI50 [50]: 3.33 µM (inactive) | GI50 [51]: 6.68 µM (inactive) | GI50 [54]: 1.83 µM (inactive)

CC1C(c2ccc3c(c2)OCO3)c2cc3c(cc2OC1N1CCCC1)OCO3 (centres undefined)
GI50 [2]: 35.8 µM (inactive) | GI50 [3]: 31.3 µM (inactive) | GI50 [52]: 25.5 µM (inactive) | GI50 [4]: 34.5 µM (inactive) | GI50 [5]: 10.6 µM (inactive) | GI50 [7]: 25.8 µM (inactive) | GI50 [8]: 20.9 µM (inactive) | GI50 [9]: 11.6 µM (inactive) | GI50 [10]: 32.5 µM (inactive) | GI50 [11]: 30 µM | GI50 [12]: 17.8 µM (inactive) | GI50 [13]: 37.7 µM (inactive) | GI50 [14]: 31 µM (inactive) | GI50 [53]: 53.6 µM (inactive) | GI50 [16]: 30.3 µM (inactive) | GI50 [17]: 34.4 µM (inactive) | GI50 [18]: 16.1 µM (inactive) | GI50 [19]: 24.9 µM (inactive) | GI50 [20]: 24 µM (inactive) | GI50 [21]: 17.7 µM (inactive) | GI50 [22]: 35.5 µM (inactive) | GI50 [24]: 49.5 µM (inactive) | GI50 [25]: 32.9 µM (inactive) | GI50 [27]: 31.6 µM (inactive) | GI50 [28]: 34.8 µM (inactive) | GI50 [29]: 31.3 µM (inactive) | GI50 [55]: 18 µM (inactive) | GI50 [31]: 23.1 µM (inactive) | GI50 [32]: 16.1 µM (inactive) | GI50 [33]: 45.5 µM (inactive) | GI50 [34]: 15.1 µM (inactive) | GI50 [56]: 5.52 µM (inactive) | GI50 [35]: 61.4 µM (inactive) | GI50 [36]: 34.1 µM (inactive) | GI50 [37]: 29.2 µM (inactive) | GI50 [38]: 39.6 µM (inactive) | GI50 [40]: 37.9 µM (inactive) | GI50 [41]: 33.1 µM (inactive) | GI50 [42]: 29.3 µM (inactive) | GI50 [43]: 38.7 µM (inactive) | GI50 [44]: 26.4 µM (inactive) | GI50 [45]: 18 µM (inactive) | GI50 [46]: 17.2 µM (inactive) | GI50 [47]: 27.4 µM (inactive) | GI50 [48]: 24.4 µM (inactive) | GI50 [49]: 35.4 µM (inactive) | GI50 [50]: 29.2 µM (inactive) | GI50 [51]: 37.1 µM (inactive)
